Results from PubChem BioAssay AID334 (DTP/NCI, 2004).
Where “and” joins values, the source holds several entries; their conditions need not be identical. Equal values may be shown once. Toxic doses and inconclusive results are not listed. Rule for the calls: active = survival T/C of 150% or more; inactive = T/C below 125% in these data.

Test system: CD2F1 mice, intracerebral P388 leukemia, median survival T/C%
Experiment: NCI In Vivo Anticancer Drug Screen. Data for tumor model P388 Leukemia (intracerebral) in CD2F1 (CDF1) mice
Conditions: endpoint: median survival time, higher = longer survival
Method: The antitumor activity of compounds was measured in mice bearing transplantable tumors. Survival or tumor size were measured and the results are expressed as the measurement made in the treated group (T) divided by the measurement made in the vehicle treated control group (C). The tumor model used in this assay is P388 Leukemia (intracerebral) in CD2F1 (CDF1) mice

[1] = dose: 8.0 mg/kg/injection, schedule: Q01DX009 (ip), vehicle: saline
[2] = dose: 4.0 mg/kg/injection, schedule: Q01DX009 (ip), vehicle: saline

Measured: T/C

CC1(C)N=C(N)N=C(N)N1c1ccc(CCCCc2cccc(S(=O)(=O)F)c2)c(Cl)c1
inactive: [1] 94 % of control | dose: 12.0 mg/kg/injection, schedule: Q01DX009 (ip), vehicle: saline 116 % of control | dose: 18.0 mg/kg/injection, schedule: Q01DX009 (ip), vehicle: saline 105 % of control | dose: 27.0 mg/kg/injection, schedule: Q01DX009 (ip), vehicle: saline 88 % of control

Nc1ccc2nc3ccc(N)cc3[n+](-c3ccccc3)c2c1
inactive: dose: 1.0 mg/kg/injection, schedule: Q01DX009 (ip), vehicle: saline 89 % of control | dose: 2.0 mg/kg/injection, schedule: Q01DX009 (ip), vehicle: saline 87 % of control | [2] 99 % of control | [1] 99 % of control

COc1cc(NCc2ccc3nc(N)nc(N)c3c2C)cc(OC)c1OC (tested in a mixture with another compound)
inactive: dose: 7.5 mg/kg/injection, schedule: Q01DX009 (ip), vehicle: water 100 % of control | dose: 15.0 mg/kg/injection, schedule: Q01DX009 (ip), vehicle: water 115 % of control | dose: 30.0 mg/kg/injection, schedule: Q01DX009 (ip), vehicle: water 117 % of control

CC1(C)N=C(N)N=C(N)N1c1ccc(OCCOc2ccc(S(=O)(=O)F)cc2)c(Cl)c1
inactive: dose: 12.5 mg/kg/injection, schedule: Q04DX003 (ip), vehicle: saline 116 % of control | dose: 25.0 mg/kg/injection, schedule: Q04DX003 (ip), vehicle: saline 100 % of control | dose: 50.0 mg/kg/injection, schedule: Q04DX003 (ip), vehicle: saline 94 % of control

C#C[C@]1(O)CC[C@H]2[C@@H]3CCc4cc(O)ccc4[C@H]3CC[C@@]21C
inactive: dose: 8.0 mg/kg/injection, schedule: Q01DX009 (ip), vehicle: Klucel (hydroxypropylcellulose) (HPC) 90 % of control and 100 % of control | dose: 16.0 mg/kg/injection, schedule: Q01DX009 (ip), vehicle: Klucel (hydroxypropylcellulose) (HPC) 94 % of control and 104 % of control | dose: 16.0 mg/kg/injection, schedule: Q01DX009 (ip), vehicle: saline with Tween-80 95 % of control | dose: 32.0 mg/kg/injection, schedule: Q01DX009 (ip), vehicle: Klucel (hydroxypropylcellulose) (HPC) 100 % of control and 101 % of control | dose: 32.0 mg/kg/injection, schedule: Q01DX009 (ip), vehicle: saline with Tween-80 100 % of control | dose: 64.0 mg/kg/injection, schedule: Q01DX009 (ip), vehicle: Klucel (hydroxypropylcellulose) (HPC) 94 % of control and 100 % of control | dose: 64.0 mg/kg/injection, schedule: Q01DX009 (ip), vehicle: saline with Tween-80 95 % of control | dose: 128.0 mg/kg/injection, schedule: Q01DX009 (ip), vehicle: Klucel (hydroxypropylcellulose) (HPC) 99 % of control and 102 % of control | dose: 256.0 mg/kg/injection, schedule: Q01DX009 (ip), vehicle: Klucel (hydroxypropylcellulose) (HPC) 95 % of control and 100 % of control | dose: 512.0 mg/kg/injection, schedule: Q01DX009 (ip), vehicle: Klucel (hydroxypropylcellulose) (HPC) 86 % of control and 99 % of control | dose: 512.0 mg/kg/injection, schedule: Q01DX009 (ip), vehicle: saline with Tween-80 103 % of control

CCCCCC(=O)NC(Cc1ccc(N(CCCl)CCCl)cc1)C(=O)O (configuration not stated)
inactive: dose: 1.3 mg/kg/injection, schedule: Q03HX008 (ip), vehicle: saline 94 % of control | dose: 2.6 mg/kg/injection, schedule: Q03HX008 (ip), vehicle: saline 105 % of control | dose: 5.3 mg/kg/injection, schedule: Q03HX008 (ip), vehicle: saline 105 % of control | dose: 10.6 mg/kg/injection, schedule: Q03HX008 (ip), vehicle: saline 100 % of control | dose: 21.2 mg/kg/injection, schedule: Q03HX008 (ip), vehicle: saline 115 % of control

COc1cc(NC(=O)CN(CCCl)CCCl)cc(OC)c1OC
inactive: dose: 12.5 mg/kg/injection, schedule: Q01DX009 (ip), vehicle: saline with Tween-80 113 % of control and 102 % of control | dose: 25.0 mg/kg/injection, schedule: Q01DX009 (ip), vehicle: saline with Tween-80 104 % of control and 107 % of control | dose: 50.0 mg/kg/injection, schedule: Q01DX009 (ip), vehicle: saline with Tween-80 114 % of control and 118 % of control | dose: 100.0 mg/kg/injection, schedule: Q01DX009 (ip), vehicle: saline with Tween-80 114 % of control | dose: 200.0 mg/kg/injection, schedule: Q01DX009 (ip), vehicle: saline with Tween-80 87 % of control

CC[n+]1c(-c2ccccc2)c2cc(N)ccc2c2ccc(N)cc21
inactive: dose: 6.0 mg/kg/injection, schedule: Q01DX005 (ip), vehicle: saline 102 % of control | dose: 12.0 mg/kg/injection, schedule: Q01DX005 (ip), vehicle: saline 99 % of control and 106 % of control

O=C1c2c(O)ccc(O)c2C(=O)c2c(NCCNCCO)ccc(NCCNCCO)c21
inactive: dose: 0.5 mg/kg/injection, schedule: Q01DX009 (ip), vehicle: saline with Tween-80 100 % of control | dose: 1.0 mg/kg/injection, schedule: Q01DX009 (ip), vehicle: saline with Tween-80 105 % of control | dose: 2.0 mg/kg/injection, schedule: Q01DX009 (ip), vehicle: saline with Tween-80 106 % of control

N[C@H](C(=O)O)[C@@H]1CC(Cl)=NO1
active: [2] 168 % of control
inactive: [1] 114 % of control
